Reference: US9835558B2, “Aggregation-induced emission luminogen having an peptide sequence and its uses thereof” (priority 2015, dated 2017)
Residues, ends and D or L forms follow the SMILES beside them. *: point of attachment. X1 = O=C(COc1ccc(C(=C(c2ccccc2)c2ccccc2)c2ccccc2)cc1)*; Palmitoyl = CCCCCCCCCCCCCCCC(=O)*

Assay: cyto-toxicity by MTT assay
Assay type: cell-based
Conditions: human, MCF-7 cells; TR4 0.05-50 μM, incubation for 30 min, MCF-7, data not shown; read-out: cellular viability

## CCCCCCCCCCCCCCCC(=O)NCCCC[C@H](NC(=O)COc1ccc(C(=C(c2ccccc2)c2ccccc2)c2ccccc2)cc1)C(=O)N[C@@H](CCCNC(=N)N)C(=O)N[C@@H](CCCNC(=N)N)C(=O)N[C@@H](CCCNC(=N)N)C(=O)N[C@@H](CCCNC(=N)N)C(N)=O [TR4] (X1-K(Palmitoyl)RRRR-NH2)
  viability at 0.5 h: > 80%
